Data on eight compounds can be found in paper PMC9845330 (Communications Biology, 2023).

“Also recorded” adds a separate entry of the source. Non-standard residues stand in square brackets, D forms with d. Residues, ends and D or L forms follow the SMILES beside them. *: point of attachment. X1 = O=C(CCCC[C@@H]1SC[C@@H]2NC(=O)N[C@@H]21)NCCCOCCOCCOCCCN*; PEG12 = NCCOCCOCCOCCOCCOCCOCCOCCOCCOCCOCCOCCOCCC(=O)O

By EC50 is commonly meant the midpoint of the concentration-response curve.

The subject of series [1] is H1299 cells. The experiment in a line: Cell binding and internalization by flow cytometry, relative (normalized) uptake of peptide-streptavidin-phycoerythrin. The format is cell-based, human. The settings on record: for Bmax (best-fit): Supplementary Table 2, normalized binding; for fold decrease in affinity: C-terminal truncation versus full-length monomer. The procedure: MGS4 was initially selected by phage display biopanning of a peptide library on live cells. […] As such, multivalent binding is often required. To ascertain whether multivalent binding is required for MGS4 internalization, monomeric (MGS4_V2) and tetrameric (MGS4_V1) peptides were synthesized and labeled as described (Supplementary Figure 1). After incubation of varying peptide concentrations on live cells, surface-bound peptide was removed by low pH washes, as well as trypsinization. Relative internalization was measured by flow cytometry to determine an EC50 value which represents the concentration of peptide producing half-maximal internalization. This measurement is dependent on the affinity of the peptide for its cellular target and the rate of internalization. This is a more accurate representation of the biological situation and useful in evaluating the peptides as drug delivery agents. As expected for receptor-mediated endocytosis, uptake of MGS4 is saturable with increasing concentration.
Fig. 1 Monomeric and tetrameric MGS4 have similar binding, internalization and subcellular location. a Binding and internalization of tetrameric MGS4_V1 and monomeric MGS4_V2 on live H1299 cells in culture. Cells were incubated with the peptide conjugated to streptavidin-phycoerythrin for 1 h at 37 °C. Non-internalized peptide was removed and the cells were analyzed by flow cytometry. b H1299 cells were incubated with MGS4_V1 or MGS4_V2 conjugated to streptavidin-Alexa Fluor 555 (red) for 1 h, washed, fixed and counterstained with WGA-Alexa Fluor 488 (green, cell membrane) and DAPI (blue, nuclei) and analyzed by fluorescence microscopy. The scale bar represents 20 µm. MGS4_V1 and MGS4_V2 internalize to a similar degree and localize to a similar destination. c Truncated monomeric MGS4 peptides have similar EC50 as the parental full-length peptide. Individual measurements are shown. The mean is shown as an “X” and black error bars represent standard error for a minimum of three experimental replicates (SEM). All original binding data and nonlinear regression analysis of the data are included in the supplementary materials.
Biotinylated peptide was conjugated to streptavidin-R-phycoerythrin or streptavidin-Alexa Fluor 647 (1:1 molar ratio) for 30 min. The open binding sites on streptavidin were quenched with RPMI 1640 and diluted to the indicated concentration. Tumor cells were grown to 90% confluency in a 12 well plate, then incubated with 500 µl peptide-dye conjugate at 37 °C. After 1 h, peptide was removed, and the cells were washed 3x with PBS (137 mM NaCl, 2.7 mM KCl, 10 mM Na2HPO4, 1.8 mM KH2PO4, pH 7.4), 2x with 0.1 M HCl-glycine pH2.2 in 0.9% NaCl, and 1x PBS rinse. Cells were removed by trypsinization. Flow cytometry was performed on a BD FACSCelesta, and data were analyzed on Flowing software. Cells were gated based on the forward and side scatter to include only viable cells and a minimum of 10,000 events were counted. A region containing <5% of the cells in the negative control was established, and relative peptide uptake by the mean fluorescence intensity of that population. For absolute peptide uptake per cell, a standard curve was generated using Quantum™ Alexa Fluor 647 microspheres (Bangs Laboratory, Fishers, IN). A representative linear regression showing the correlation of molecule equivalents soluble fluorophores (MESF) vs the mean fluorescence intensity (MFI) is shown in Supplemental Figure 6. Cells were gated based on the forward and side scatter to include only viable cells and a minimum of 10,000 events were counted. MFI was determined at 50% at peak height. Molecules internalized per cell were determined by the standard curve relating MESF to MFI and divided by the number dye molecules/MGS conjugate. An example is shown in supplemental Figure 7. GraphPad Prism® was used for non-linear regression curve fitting to calculate an EC50. […]
(In general: In flow cytometry, cells or beads pass a laser one at a time.)

The nature of series [2]: Stability in human serum. The settings on record: 100% human serum, 48 h, 37 °C, serum proteins precipitated, analytical HPLC, MALDI TOF/TOF MS. The series is classed as in vitro ADME. As to the method:
To address if acetylation is effective in reducing serum degradation of MGS4, acetylated (MGS4_V8) and non-acetylated (MGS4_V4) peptides were dissolved in human serum and incubated for 48 h at 37 °C. The peptides were monitored by analytical HPLC, and products were verified via MALDI TOF/TOF™ MS. […] Instead, a mixture of peptide fragments is detected, none of which correspond to the mass of the starting peptide (Supplemental Table 1 and Supplemental Fig. 2). The major products are shorter fragments corresponding to the loss of the five N-terminal amino acids. Fragments related to QSFYT-PEG11, SFYT-PEG11 and FYT-PEG11 are observed.
Supplemental Figure 1. […]
M GS4_V4 (non-acetylated, panel a) and M GS4_V8 (acetylated, panel b ) were incubated in 100% human serum for 0 and 48-hours. Serum proteins were precipitated, and the peptide was analyzed by analytical
HPLC. The mass of the peptide and degradation products were determined by MALDI MS and are […]
MGS4_V8, MGS4_V9, or MGS4_V10 were conjugated with streptavidin-Alexa Fluor 650 and were incubated with the indicated cell line for 1 hour. Non-internalized peptide was rem ov ed, and the mean number of peptides internalized per cell was determined to calculate the EC50. […]
Supplemental Figure 4 : Peptide-Streptavidin conjugates are nontoxic to cells. a. […] After 72 hours, viability was measured. […]

The nature of series [3]: 100% human serum. The settings on record: 37 °C, up to 48 h.
[4] abbreviates: H1299 cells, 1 h at 37 °C, normalized uptake, one-site specific binding fit, Average ± SEM, minimum 3 replicates.

`CC(C)[C@H](NC(=O)[C@H](C)NC(=O)[C@H](Cc1c[nH]cn1)NC(=O)[C@@H](N)Cc1ccccc1)C(=O)N1CCC[C@H]1C(=O)N[C@@H](CCC(N)=O)C(=O)N[C@@H](CO)C(=O)N[C@@H](Cc1ccccc1)C(=O)N[C@@H](Cc1ccc(O)cc1)C(=O)N[C@H](C(=O)N[C@@H](C)C(=O)N1CCC[C@H]1C(=O)NCCOCCOCCOCCOCCOCCOCCOCCOCCOCCOCCOCCOCCC(=O)N[C@@H](CCC(=O)NCCCOCCOCCOCCCNC(=O)CCCC[C@@H]1SC[C@@H]2NC(=O)N[C@@H]21)C(N)=O)[C@@H](C)O` [MGS4_V2] (H-FHAVPQSFYTAP[PEG12]E(X1)-NH2): the “Bmax (best-fit)” value in series [1] is reported as 1.065.

`CC(C)[C@H](NC(=O)[C@H](C)NC(=O)[C@H](Cc1c[nH]cn1)NC(=O)[C@@H](N)Cc1ccccc1)C(=O)N1CCC[C@H]1C(=O)N[C@@H](CCC(N)=O)C(=O)N[C@@H](CO)C(=O)N[C@@H](Cc1ccccc1)C(=O)N[C@@H](Cc1ccc(O)cc1)C(=O)N[C@H](C(=O)N[C@@H](C)C(=O)NCCOCCOCCOCCOCCOCCOCCOCCOCCOCCOCCOCCOCCC(=O)N[C@@H](CCC(=O)NCCCOCCOCCOCCCNC(=O)CCCC[C@@H]1SC[C@@H]2NC(=O)N[C@@H]21)C(N)=O)[C@@H](C)O` [MGS4_V3] (H-FHAVPQSFYTA[PEG12]E(X1)-NH2): in series [1], the “fold decrease in affinity” value is reported as 3-5 fold and the “Bmax (best-fit)” value was found to be 1.247.

`CC(C)[C@H](NC(=O)[C@H](C)NC(=O)[C@H](Cc1c[nH]cn1)NC(=O)[C@@H](N)Cc1ccccc1)C(=O)N1CCC[C@H]1C(=O)N[C@@H](CCC(N)=O)C(=O)N[C@@H](CO)C(=O)N[C@@H](Cc1ccccc1)C(=O)N[C@@H](Cc1ccc(O)cc1)C(=O)N[C@H](C(=O)NCCOCCOCCOCCOCCOCCOCCOCCOCCOCCOCCOCCOCCC(=O)N[C@@H](CCC(=O)NCCCOCCOCCOCCCNC(=O)CCCC[C@@H]1SC[C@@H]2NC(=O)N[C@@H]21)C(N)=O)[C@@H](C)O` [MGS4_V4] (H-FHAVPQSFYT[PEG12]E(X1)-NH2): in series [1], the “fold decrease in affinity” value is reported as 3-5 fold and the “Bmax (best-fit)” value amounted to 1.402. For the same compound, the “peptide after incubation in human serum” value in series [2] is “none of the starting material”.

Consider `CC(=O)N[C@@H](Cc1ccccc1)C(=O)N[C@@H](Cc1c[nH]cn1)C(=O)N[C@@H](C)C(=O)N[C@H](C(=O)N1CCC[C@H]1C(=O)N[C@@H](CCC(N)=O)C(=O)N[C@@H](CO)C(=O)N[C@@H](Cc1ccccc1)C(=O)N[C@@H](Cc1ccc(O)cc1)C(=O)N[C@H](C(=O)N[C@@H](C)C(=O)N1CCC[C@H]1C(=O)NCCOCCOCCOCCOCCOCCOCCOCCOCCOCCOCCOCCOCCC(=O)N[C@@H](CCC(=O)NCCCOCCOCCOCCCNC(=O)CCCC[C@@H]1SC[C@@H]2NC(=O)N[C@@H]21)C(N)=O)[C@@H](C)O)C(C)C` [MGS4_V7] (Ac-FHAVPQSFYTAP[PEG12]E(X1)-NH2), for which the “Bmax (best-fit)” value in series [1] came to 1.470.

Take AcFHAVPQSFYT-PEG11: the not cleaved entry in series [3] was “only full-length peptide observed after 48 h; 93.4% of peak at 48 Hours (93.5% in starting material)”.

For the compound “FHAVPQSFY*** [MGS4_V5, monomeric MGS4 truncated by three C-terminal amino acids]”, the “EC50 (nM)” value in series [1] (setting [4]) is “Not Detected^2”.

Turning to FHAVPQSFYT-PEG11, in series [3], the cleaved bond result is “P-Q, major, 48 Hours” and the fragment found result is “SFYT-PEG11, 48 Hours; also recorded: FYT-PEG11, 48 Hours”.

In series [1] (setting [4]), “FHAVPQSFYTAP [MGS4_V1, tetrameric full-length MGS4 peptide]” gave an EC50 of 3.6 ± 0.49 nM. Besides, the “Bmax (best-fit)” value in series [1] came to 1.171.
